Measurements from patent US20240342143A1, “APPLICATION OF ALKALOID COMPOUND HIP IN TREATMENT OF CARDIAC TRAUMA” (HUZHOU COLLEGE, priority 2022, published 2024).

Legend:
Type in all cases: cell-based
p-JNK = assay: Western blot of p-JNK/JNK expression in DOX-induced H9c2 cardiomyocytes; settings: FIG. 4; for expression level of p-JNK vs DOX model group: 1 h, then 2.5 μM DOX 24 h
Method: (§1) (2) From H9c2 cardiomyocytes which were treated with different tested seabuckthorn alkaloids for 1 h and then treated with 2.5 μM DOX for 24 h, proteins were extract. That is, the H9c2 cardiomyocytes were lysed and scraped, and the cell lysate were collected and centrifuged at 12,000 g for 15 min to collect the supernatant and discard the precipitate. The supernatant was stored at […], and quantified for proteins using the BCA method for later use. SDS-PAGE electrophoresis was performed by using 5% stacking gel (Step1: 80V, 30 min; Step2: 120V, 180 min). The membrane transfer was performed using a PVDF membrane for 30 min at 80 mA. Blocking and hybridization was performed by blocking in 5% nonfat milk powder for 1 h, incubating with a primary antibody overnight and incubating with a secondary antibody at room temperature for 1-2 h with gentle shaking. Development was performed by ECL reagent development. Expression levels of intracellular Caspase-3 and p-JNK/JNK proteins were observed using a gel imaging system.

Cleaved-Caspase-3 = assay: Western blot of Cleaved-Caspase-3 expression in DOX-induced H9c2 cardiomyocytes; settings: FIG. 3
Method: as §1

H9c2 cardiomyocytes = assay: Toxicity effect of Hip on H9c2 cardiomyocytes (MTT colorimetric method); settings: 24 h, FIG. 1
Method: H9c2 cells were incubated with the alkaloid compound Hip at different concentrations (0.1μ, 1μ, 5μ, 10μ, 20μ, 40μ, 80μ, 160 μM) of for 24 h. The toxicity effect of the alkaloid compound on cardiomyocytes was evaluated by using the MTT colorimetric method.

[1] = tested on: DOX-induced H9c2 cardiomyocytes; assay: Effect of Hip on DOX-induced H9c2 cardiomyocyte toxicity (MTT colorimetric method); settings: 1 h pre-incubation, then 2.5 μM DOX 24 h, FIG. 2
Method: (1) H9c2 cells were pre-incubated with the alkaloid compound Hip for 1 h, and then added with 2.5 μM doxorubicin (DOX) for 24 h. The effect of the alkaloid compound Hip for DOX-induced cardiomyocyte apoptosis activity was screened by using the MTT colorimetric method. The optimal concentration range for action was determined.

[2] = 2.5 μM DOX 24 h, DOX model group

Structure (SMILES)	expression level of p-JNK vs Con group (p-JNK; [2])	expression level of Cleaved-Caspase-3 vs Con group (Cleaved-Caspase-3; [2])	viability of H9c2 cells vs Con group (H9c2 cardiomyocytes; Hip 80 μM)	viability of H9c2 cells vs Con group (H9c2 cardiomyocytes; Hip 0.1~40 μM)	difference from DOX model group in DOX-induced myocardial cytotoxicity ([1]; Hip 5-80 μM)	inhibition of DOX-induced myocardial cytotoxicity vs DOX model group ([1]; different Hip concentrations)	expression level of p-JNK vs DOX model group (p-JNK; Hip high-dose group 40 μM)	expression level of p-JNK vs DOX model group (p-JNK; Hip low-dose group 10 μM)	expression level of p-JNK vs DOX model group (p-JNK; Hip middle-dose group 20 μM)	expression level of Cleaved-Caspase-3 vs DOX model group (Cleaved-Caspase-3; Hip 10 μM, 20 μM and 40 μM, 1 h, then 2.5 μM DOX 24 h)
COc1cccc2c1C(=O)c1c(O)c3c(c(O)c1C2=O)C[C@@](O)(C(=O)CO)C[C@@H]3O[C@H]1C[C@H](N)[C@H](O)[C@H](C)O1 [DOX, doxorubicin, reference compound]	can significantly increase the expression level of p-JNK	can significantly increase the expression level of Cleaved-Caspase-3								
O=C1CC[C@H]2c3[nH]c4ccc(O)cc4c3CCN12 [Hip, Hippophamide]			a significant difference compared with the Con group	no statistical difference compared with the Con group	significantly or extremely significant different	can inhibit DOX-induced myocardial cytotoxicity	extremely significant differences	no statistical difference	extremely significant differences	can decrease the increased level of Cleaved-Caspase-3 caused by DOX to varying degree
